In general, Emax refers to the maximal effect, on the per cent scale that the assay sets.

A value given as a limit tells only on which side of the number the result lay.

Common to all, as to type: cell-based
The target in one experiment is T1, M1 muscarinic receptor (Homo sapiens, UniProt P11229).
T1 construct: expressed in transfected cells; host or cells: CHO (M1-CHO)
T1 sequence (P11229 1-460): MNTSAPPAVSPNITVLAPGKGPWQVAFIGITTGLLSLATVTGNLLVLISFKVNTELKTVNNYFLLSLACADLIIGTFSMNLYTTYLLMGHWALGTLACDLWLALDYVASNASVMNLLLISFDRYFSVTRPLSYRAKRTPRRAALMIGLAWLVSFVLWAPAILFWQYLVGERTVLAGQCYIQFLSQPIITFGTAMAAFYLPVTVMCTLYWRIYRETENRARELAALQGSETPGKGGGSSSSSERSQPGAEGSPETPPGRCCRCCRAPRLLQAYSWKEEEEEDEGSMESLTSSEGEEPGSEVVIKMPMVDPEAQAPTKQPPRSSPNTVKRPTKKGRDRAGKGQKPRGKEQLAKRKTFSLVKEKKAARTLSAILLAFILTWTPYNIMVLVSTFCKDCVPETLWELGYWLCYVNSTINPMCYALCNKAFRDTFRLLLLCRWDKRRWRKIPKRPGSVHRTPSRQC
Kind of experiment: Functional mobilization of intracellular calcium (FLIPR), M1-CHO cells. Conditions: for Emax: 100% efficacy is the maximum response obtained with the Carbachol control; for M1 Activity: M1-CHO cells, calcium mobilization (FLIPR). In outline:
(§1)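 CHO cells expressing human M1–M4 receptors loaded with Fluo-3 AM or Calcium 3 dye (1 mM probenecid, pH 7.4); 0.5% DMSO final. Agonist mode: compound added directly; antagonist mode: 15 min pre-incubation or co-application, then carbachol at EC80. Fluorescence read 60 s on FLIPR; efficacy relative to carbachol maximum.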

The next experiment deals with T2, M2 muscarinic receptor (Homo sapiens, UniProt P08172).
T2 construct: expressed in transfected cells; host or cells: CHO (M2-CHO)
T2 sequence (P08172 1-466): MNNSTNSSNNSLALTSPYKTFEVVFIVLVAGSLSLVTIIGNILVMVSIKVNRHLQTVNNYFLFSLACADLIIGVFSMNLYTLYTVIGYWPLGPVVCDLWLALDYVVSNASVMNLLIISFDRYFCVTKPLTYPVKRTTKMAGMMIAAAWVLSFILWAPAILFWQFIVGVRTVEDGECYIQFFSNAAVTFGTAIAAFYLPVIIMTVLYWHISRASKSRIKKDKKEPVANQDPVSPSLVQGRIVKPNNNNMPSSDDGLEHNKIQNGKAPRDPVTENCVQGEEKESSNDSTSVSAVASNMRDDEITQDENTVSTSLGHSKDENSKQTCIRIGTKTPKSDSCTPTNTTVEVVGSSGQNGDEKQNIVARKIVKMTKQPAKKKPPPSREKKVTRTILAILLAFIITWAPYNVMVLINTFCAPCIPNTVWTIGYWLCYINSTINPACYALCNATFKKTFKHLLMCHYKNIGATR
Kind of experiment: Functional mobilization of intracellular calcium (FLIPR), M2-CHO cells. The conditions noted are these: for Emax: 100% efficacy is the maximum response obtained with the Carbachol control; for M2 Activity: M2-CHO cells, calcium mobilization (FLIPR). In outline: as §1
A general note: Calcium flux is commonly read through the fluorescence of an indicator in the cells.

A further experiment has as its target T3, M4 muscarinic receptor (Homo sapiens, UniProt P08173).
T3 construct: expressed in transfected cells; host or cells: CHO (M4-CHO)
T3 sequence (P08173 1-479): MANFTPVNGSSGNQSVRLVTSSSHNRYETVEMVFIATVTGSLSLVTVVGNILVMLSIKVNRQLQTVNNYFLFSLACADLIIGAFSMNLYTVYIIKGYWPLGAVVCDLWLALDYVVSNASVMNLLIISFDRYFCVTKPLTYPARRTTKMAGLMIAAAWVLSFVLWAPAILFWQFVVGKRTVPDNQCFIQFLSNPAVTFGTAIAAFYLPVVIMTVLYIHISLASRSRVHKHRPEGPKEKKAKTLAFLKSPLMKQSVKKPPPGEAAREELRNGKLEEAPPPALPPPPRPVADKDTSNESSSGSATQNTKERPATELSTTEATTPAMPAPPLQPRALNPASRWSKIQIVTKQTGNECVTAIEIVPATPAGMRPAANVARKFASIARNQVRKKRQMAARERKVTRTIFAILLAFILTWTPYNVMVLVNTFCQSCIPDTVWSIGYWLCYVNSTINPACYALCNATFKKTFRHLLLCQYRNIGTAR
Kind of experiment: Functional mobilization of intracellular calcium (FLIPR), M4-CHO cells. Conditions: for Emax: 100% efficacy is the maximum response obtained with the Carbachol control; for M4 Activity: M4-CHO cells, calcium mobilization (FLIPR). In outline: as §1

The next experiment concerns the target T4, M3 muscarinic receptor (Homo sapiens, UniProt P20309).
T4 construct: expressed in transfected cells; host or cells: CHO (M3-CHO)
In words: Functional mobilization of intracellular calcium (FLIPR), M3-CHO cells. Conditions: for Emax: 100% efficacy is the maximum response obtained with the Carbachol control; for M3 Activity: M3-CHO cells, calcium mobilization (FLIPR). The method, boiled down:
as §1

T4 sequence (P20309 whole entry): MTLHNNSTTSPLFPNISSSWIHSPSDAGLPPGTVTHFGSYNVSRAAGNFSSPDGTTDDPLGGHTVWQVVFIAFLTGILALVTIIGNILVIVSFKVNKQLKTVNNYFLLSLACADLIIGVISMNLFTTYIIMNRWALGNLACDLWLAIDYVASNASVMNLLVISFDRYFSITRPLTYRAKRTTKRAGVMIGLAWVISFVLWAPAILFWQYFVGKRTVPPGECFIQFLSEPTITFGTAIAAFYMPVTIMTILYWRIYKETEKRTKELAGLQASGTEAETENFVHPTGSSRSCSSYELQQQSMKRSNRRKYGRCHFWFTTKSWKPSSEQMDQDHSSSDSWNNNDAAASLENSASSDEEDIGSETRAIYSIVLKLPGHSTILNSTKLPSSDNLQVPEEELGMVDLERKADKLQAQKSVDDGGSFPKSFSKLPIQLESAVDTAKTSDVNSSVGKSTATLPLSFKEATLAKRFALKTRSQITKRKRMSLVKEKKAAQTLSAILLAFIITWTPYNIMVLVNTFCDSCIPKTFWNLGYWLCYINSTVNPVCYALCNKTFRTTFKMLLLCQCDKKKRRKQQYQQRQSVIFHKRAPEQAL

Consider `OC1(c2cc(Cl)cc(Cl)c2)CCN(C2C[C@H]3CC[C@H]2C3)CC1` (stereo partly drawn) [Compound 375], for which, at M1 muscarinic receptor, the maximal response (Emax) was under 25% and the “M1 Activity” value is “+ (activity was measured to be greater than 5.0 μM)”. Besides, on M2 muscarinic receptor, the Emax is under 25% and the “M2 Activity” value is “+ (activity was measured to be greater than 5.0 μM)”. Further, at M4 muscarinic receptor, the Emax is 25 to 100% and the “M4 Activity” value is reported as “+ (activity was measured to be greater than 5.0 μM)”. Besides, at M3 muscarinic receptor, the maximal response (Emax) is under 25% and the “M3 Activity” value is on record as “+ (activity was measured to be greater than 5.0 μM)”.

For `COc1ccc(Cl)cc1C1CCN(C2CCSCC2)CC1` [Compound 376], on M1 muscarinic receptor, the Emax lay within 25 to 100% and the “M1 Activity” value is on record as “++ (activity was measured to be from 1.0 μM to 5.0 μM)”. At M2 muscarinic receptor, the Emax was under 25% and the “M2 Activity” value is listed as “+ (activity was measured to be greater than 5.0 μM)”. Besides, on M4 muscarinic receptor, the Emax lay within 25 to 100% and the “M4 Activity” value is listed as “+++ (activity was measured to be less than 1.0 μM)”. At M3 muscarinic receptor, the maximum response (Emax) is under 25% and the “M3 Activity” value is listed as “+ (activity was measured to be greater than 5.0 μM)”.

On to `COc1ccc(C#CC2(O)CCCCC2)cc1C1CCN([C@@H]2C[C@H]3CC[C@H]2C3)CC1` [Compound 377], for which, on M1 muscarinic receptor, the maximal response (Emax) is under 25% and the “M1 Activity” value is on record as “+ (activity was measured to be greater than 5.0 μM)”. For the same compound, at M2 muscarinic receptor, the Emax was under 25% and the “M2 Activity” value is reported as “+ (activity was measured to be greater than 5.0 μM)”. Further, at M4 muscarinic receptor, the Emax fell in the range of 25 to 100% and the “M4 Activity” value was “+++ (activity was measured to be less than 1.0 μM)”. Besides, on M3 muscarinic receptor, the maximum response (Emax) was under 25% and the “M3 Activity” value is recorded as “+ (activity was measured to be greater than 5.0 μM)”.

For `Fc1ccccc1C1CCN(C2CCOCC2)CC1` [Compound 378], on M1 muscarinic receptor, the maximal response (Emax) was 25 to 100% and the “M1 Activity” value is given as “+ (activity was measured to be greater than 5.0 μM)”. For the same compound, on M2 muscarinic receptor, the maximal response (Emax) is under 25% and the “M2 Activity” value is reported as “+ (activity was measured to be greater than 5.0 μM)”. Besides, at M4 muscarinic receptor, the maximum response (Emax) lay in the range of 25 to 100% and the “M4 Activity” value was “+++ (activity was measured to be less than 1.0 μM)”. Besides, on M3 muscarinic receptor, the maximum response (Emax) was under 25% and the “M3 Activity” value was “+ (activity was measured to be greater than 5.0 μM)”.

For the compound `Cc1ccc(F)cc1C1CCN([C@@H]2C[C@H]3CC[C@H]2C3)CC1` [Compound 381], on M1 muscarinic receptor, the maximum response (Emax) is 25 to 100% and the “M1 Activity” value was “++ (activity was measured to be from 1.0 μM to 5.0 μM)”. On M2 muscarinic receptor, the Emax lay within 25 to 100% and the “M2 Activity” value is “++ (activity was measured to be from 1.0 μM to 5.0 μM)”. Moreover, at M4 muscarinic receptor, the Emax was 25 to 100% and the “M4 Activity” value is on record as “+++ (activity was measured to be less than 1.0 μM)”. For the same compound, on M3 muscarinic receptor, the Emax is under 25% and the “M3 Activity” value is listed as “+ (activity was measured to be greater than 5.0 μM)”.

As to `COc1ccc(-c2ccc3c(c2)OCO3)cc1C1CCN(C2CCCCC2)CC1` [Compound 382], at M1 muscarinic receptor, the maximum response (Emax) was under 25% and the “M1 Activity” value is listed as “+ (activity was measured to be greater than 5.0 μM)”. On M2 muscarinic receptor, the maximal response (Emax) is under 25% and the “M2 Activity” value was “+ (activity was measured to be greater than 5.0 μM)”. For the same compound, at M4 muscarinic receptor, the Emax was 25 to 100% and the “M4 Activity” value was “+ (activity was measured to be greater than 5.0 μM)”. In addition, on M3 muscarinic receptor, the maximal effect (Emax) is under 25% and the “M3 Activity” value is “+ (activity was measured to be greater than 5.0 μM)”.

`COc1ccc(-c2ccc(C#N)cc2)cc1C1CCN([C@@H]2C[C@H]3CC[C@H]2C3)CC1` [Compound 383]: at M1 muscarinic receptor, the Emax is 25 to 100% and the “M1 Activity” value was “+ (activity was measured to be greater than 5.0 μM)”. At M2 muscarinic receptor, the maximal effect (Emax) was under 25% and the “M2 Activity” value was “+ (activity was measured to be greater than 5.0 μM)”. Besides, at M4 muscarinic receptor, the Emax fell in the range of 25 to 100% and the “M4 Activity” value is listed as “++ (activity was measured to be from 1.0 μM to 5.0 μM)”. Moreover, on M3 muscarinic receptor, the Emax is under 25% and the “M3 Activity” value is reported as “+ (activity was measured to be greater than 5.0 μM)”.

Take `CCC(C)Oc1ccccc1C1CCN([C@H]2C[C@H]3CC[C@H]2C3)CC1` (stereo partly drawn) [Compound 384]: on M1 muscarinic receptor, the Emax was 25 to 100% and the “M1 Activity” value is given as “+ (activity was measured to be greater than 5.0 μM)”. For the same compound, on M2 muscarinic receptor, the maximal effect (Emax) was under 25% and the “M2 Activity” value is given as “+ (activity was measured to be greater than 5.0 μM)”. On M4 muscarinic receptor, the Emax lay in the range of 25 to 100% and the “M4 Activity” value is given as “++ (activity was measured to be from 1.0 μM to 5.0 μM)”. For the same compound, on M3 muscarinic receptor, the maximal response (Emax) is under 25% and the “M3 Activity” value was “+ (activity was measured to be greater than 5.0 μM)”.

As for `Cc1ccc(-c2ccccc2C2CCN([C@H]3C[C@H]4CC[C@H]3C4)CC2)c(C)c1` [Compound 386], on M1 muscarinic receptor, the Emax was under 25% and the “M1 Activity” value is “+ (activity was measured to be greater than 5.0 μM)”. Also, on M2 muscarinic receptor, the maximal response (Emax) was under 25% and the “M2 Activity” value was “+ (activity was measured to be greater than 5.0 μM)”. Further, at M4 muscarinic receptor, the maximum response (Emax) is 25 to 100% and the “M4 Activity” value is reported as “+ (activity was measured to be greater than 5.0 μM)”. Further, at M3 muscarinic receptor, the maximal response (Emax) is under 25% and the “M3 Activity” value is reported as “+ (activity was measured to be greater than 5.0 μM)”.

With `CCOC(=O)N1C2CCC1CC(N1CCC(c3cc(-c4ccc5c(c4)OCO5)ccc3OC)CC1)C2` (stereo not drawn) [Compound 387], on M1 muscarinic receptor, the maximal effect (Emax) was 25 to 100% and the “M1 Activity” value is “+ (activity was measured to be greater than 5.0 μM)”. Besides, on M2 muscarinic receptor, the maximal response (Emax) was under 25% and the “M2 Activity” value was “+ (activity was measured to be greater than 5.0 μM)”. Also, at M4 muscarinic receptor, the maximal response (Emax) was in the range of 25 to 100% and the “M4 Activity” value is “++ (activity was measured to be from 1.0 μM to 5.0 μM)”. Besides, at M3 muscarinic receptor, the maximal effect (Emax) is under 25% and the “M3 Activity” value was “+ (activity was measured to be greater than 5.0 μM)”.

As to `CNC(=O)c1ccc(-c2ccc(OC)c(C3CCN([C@H]4C[C@H]5CC[C@H]4C5)CC3)c2)cc1` [Compound 388], at M1 muscarinic receptor, the Emax is under 25% and the “M1 Activity” value is on record as “+ (activity was measured to be greater than 5.0 μM)”. At M2 muscarinic receptor, the Emax is under 25% and the “M2 Activity” value is “+ (activity was measured to be greater than 5.0 μM)”. Moreover, on M4 muscarinic receptor, the maximum response (Emax) fell in the range of 25 to 100% and the “M4 Activity” value is given as “+++ (activity was measured to be less than 1.0 μM)”. At M3 muscarinic receptor, the Emax was under 25% and the “M3 Activity” value is “+ (activity was measured to be greater than 5.0 μM)”.

Turning to `COc1ccc(-c2ccc(C(=O)Nc3nccs3)cc2)cc1C1CCN(C2CCOCC2)CC1` [Compound 389], on M1 muscarinic receptor, the maximum response (Emax) is under 25% and the “M1 Activity” value is listed as “+ (activity was measured to be greater than 5.0 μM)”. Also, on M2 muscarinic receptor, the maximal response (Emax) was under 25% and the “M2 Activity” value is listed as “+ (activity was measured to be greater than 5.0 μM)”. Moreover, on M4 muscarinic receptor, the Emax was under 25% and the “M4 Activity” value is recorded as “+ (activity was measured to be greater than 5.0 μM)”. Moreover, on M3 muscarinic receptor, the maximal effect (Emax) is under 25% and the “M3 Activity” value is on record as “+ (activity was measured to be greater than 5.0 μM)”.

The values above are taken from patent US7880007B2, “Bicyclic substituted phenyl piperidine modulators of muscarinic receptors” (Vertex Pharmaceuticals Incorporated, priority 2004, dated 2011).
